Experimental findings from ChEMBL document CHEMBL3046105, “Synthesis and antihyperlipidemic efficiency of berberine-based HMG-CoA reductase inhibitor” (Med Chem Res, 2012) are described below.

By inhibition is commonly meant how much of the control response was suppressed. As a reminder, the LD50 is the dose at which mortality reaches 50%. A high value points to lower toxicity.

Molecules are shown by their SMILES.

Series [1] relates to Oryctolagus cuniculus. The series can be described thus: Toxicity in high fat-high cholesterol fed New Zealand Oryctolagus cuniculus (rabbit) assessed as mortality at 15 mg/kg, po for 40 days. The format is organism-based. Also noted: dose 15 mg/kg, route oral. The following applies: in vivo, 960 h.
Series [2] concerns Oryctolagus cuniculus. The series is described as follows: Antihyperlipidemic activity in high fat-high cholesterol fed New Zealand Oryctolagus cuniculus (rabbit) assessed as triglyceride level in blood at 15 mg/kg, po for 40 days (reference value: 2.11 +/- 0.43 mmol/l). The format is functional.
Series [3] addresses T1, 3-hydroxy-3-methylglutaryl-coenzyme A reductase (Mus musculus) (UniProt Q01237).
T1 sequence (whole entry): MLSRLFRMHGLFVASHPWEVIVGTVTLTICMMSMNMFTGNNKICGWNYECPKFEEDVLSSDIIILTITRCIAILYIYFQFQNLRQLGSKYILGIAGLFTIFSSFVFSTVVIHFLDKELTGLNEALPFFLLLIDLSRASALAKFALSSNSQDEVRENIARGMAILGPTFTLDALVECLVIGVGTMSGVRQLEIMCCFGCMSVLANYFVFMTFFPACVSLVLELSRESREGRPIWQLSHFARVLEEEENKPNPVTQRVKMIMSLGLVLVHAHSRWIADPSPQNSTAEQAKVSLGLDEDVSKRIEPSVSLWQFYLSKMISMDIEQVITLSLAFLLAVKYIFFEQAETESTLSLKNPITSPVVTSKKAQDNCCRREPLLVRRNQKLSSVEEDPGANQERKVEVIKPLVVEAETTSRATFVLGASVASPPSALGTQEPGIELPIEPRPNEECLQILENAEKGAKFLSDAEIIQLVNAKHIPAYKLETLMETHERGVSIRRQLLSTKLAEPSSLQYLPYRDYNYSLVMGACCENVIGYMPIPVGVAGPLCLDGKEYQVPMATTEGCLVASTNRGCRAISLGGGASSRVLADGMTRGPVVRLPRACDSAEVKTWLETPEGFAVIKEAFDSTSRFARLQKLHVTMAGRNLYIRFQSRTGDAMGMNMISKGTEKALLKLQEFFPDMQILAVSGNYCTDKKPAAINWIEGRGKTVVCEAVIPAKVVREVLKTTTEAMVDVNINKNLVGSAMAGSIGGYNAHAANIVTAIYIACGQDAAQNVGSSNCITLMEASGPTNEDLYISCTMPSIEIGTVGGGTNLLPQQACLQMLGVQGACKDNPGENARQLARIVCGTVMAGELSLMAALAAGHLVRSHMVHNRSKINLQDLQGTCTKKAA
The series can be described thus: Inhibition of HMGR isolated from Mus musculus (mouse) liver assessed as change in NADPH at 8 umol/l by HPLC analysis.

Series [4] deals with Oryctolagus cuniculus. The series is described as follows: Antihyperlipidemic activity in high fat-high cholesterol fed New Zealand Oryctolagus cuniculus (rabbit) assessed as high-density lipoprotein-cholesterol level in blood at 15 mg/kg, po for 40 days (reference value: 0.67 +/- 0.22 mmol/l). The format is functional.
A short description of series [5]: Toxicity in Mus musculus Kunming (mouse). The following applies: in vivo. In kind it is organism-based.
Series [6] has as its system Oryctolagus cuniculus. The series can be described thus: Toxicity in high fat-high cholesterol fed New Zealand Oryctolagus cuniculus (rabbit) assessed as body weight at 15 mg/kg, po for 40 days. In kind it is organism-based. Further details: dose 15 mg/kg, route oral. The following applies: in vivo, 960 h.
Series [7] deals with Oryctolagus cuniculus. The series can be described thus: Antihyperlipidemic activity in high fat-high cholesterol fed New Zealand Oryctolagus cuniculus (rabbit) assessed as low-density lipoprotein-cholesterol level in blood at 15 mg/kg, po for 40 days (reference value: 3.45 +/- 0.56 mmol/l). The format is functional.
The test system of series [8] is Oryctolagus cuniculus. The series is described as follows: Antihyperlipidemic activity in high fat-high cholesterol fed New Zealand Oryctolagus cuniculus (rabbit) assessed as total cholesterol level in blood at 15 mg/kg, po for 40 days (reference value: 8.89 +/- 0.53 mmol/l). In kind it is functional.
Series [9] has as its system Oryctolagus cuniculus. The series can be described thus: Antihyperlipidemic activity in high fat-high cholesterol fed New Zealand Oryctolagus cuniculus (rabbit) assessed as triglyceride level in blood at 4 mg/kg, po for 40 days (reference value: 2.11 +/- 0.43 mmol/l). The format is functional.
The test system of series [10] is Oryctolagus cuniculus. The series is described as follows: Antihyperlipidemic activity in high fat-high cholesterol fed New Zealand Oryctolagus cuniculus (rabbit) assessed as total cholesterol level in blood at 4 mg/kg, po for 40 days (reference value: 8.89 +/- 0.53 mmol/l). In kind it is functional.
The test system of series [11] is Oryctolagus cuniculus. The series is described as follows: Antihyperlipidemic activity in high fat-high cholesterol fed New Zealand Oryctolagus cuniculus (rabbit) assessed as low-density lipoprotein-cholesterol level in blood at 4 mg/kg, po for 40 days (reference value: 3.45 +/- 0.56 mmol/l). In kind it is functional.
Series [12] relates to Oryctolagus cuniculus. The series is described as follows: Antihyperlipidemic activity in high fat-high cholesterol fed New Zealand Oryctolagus cuniculus (rabbit) assessed as high-density lipoprotein-cholesterol level in blood at 4 mg/kg, po for 40 days (reference value: 0.67 +/- 0.22 mmol/l). In kind it is functional.

For the compound `CCCCCCCCCCCCc1c2c(OC)c(OC)ccc2cc2[n+]1CCc1cc3c(cc1-2)OCO3.[Cl-]` [8-DODECYL-BERBERINE CHLORIDE], the Activity result in the series with Oryctolagus cuniculus [1] was “Non-toxic”; in the series with Oryctolagus cuniculus [2], 1.86e+06 nmol/L; with Oryctolagus cuniculus [4] it was 720000 nmol/L; in the series on Oryctolagus cuniculus [6] it was “Non-toxic”; in the series on Oryctolagus cuniculus [7], 2.98e+06 nmol/L; in the series on Oryctolagus cuniculus [8], 6.04e+06 nmol/L. For the same compound, in series [3], the inhibition is 4.2%. In addition, in series [5], the LD50 was found to be 752 mg/kg.
Consider `CCCCCCCCCCCCCCCCCCc1c2c(OC)c(OC)ccc2cc2[n+]1CCc1cc3c(cc1-2)OCO3.[Cl-]` [8-OCTADECYL-BERBERINE CHLORIDE], for which the Activity entry with Oryctolagus cuniculus [1] is “Non-toxic”; with Oryctolagus cuniculus [2] it was 1.6e+06 nmol/L; with Oryctolagus cuniculus [4], 750000 nmol/L; in the series on Oryctolagus cuniculus [6], “Non-toxic”; with Oryctolagus cuniculus [7], 2.55e+06 nmol/L; in the series on Oryctolagus cuniculus [8] it was 2.37e+06 nmol/L. In addition, in [3], the inhibition amounted to 33%. This compound yielded an LD50 in series [5] of over 1000 mg/kg.
Consider `CCCCCCCCc1c2c(OC)c(OC)ccc2cc2[n+]1CCc1cc3c(cc1-2)OCO3.[Cl-]` [8-OCTYL-BERBERINE CHLORIDE], for which the Activity entry in the series with Oryctolagus cuniculus [1] is “Non-toxic”; in the series on Oryctolagus cuniculus [2] it was 1.95e+06 nmol/L; in the series with Oryctolagus cuniculus [4], 700000 nmol/L; in the series on Oryctolagus cuniculus [6], “Non-toxic”; with Oryctolagus cuniculus [7], 3.06e+06 nmol/L; in the series on Oryctolagus cuniculus [8], 6.25e+06 nmol/L. The 50% lethal dose (LD50) in series [5] was determined as 534 mg/kg.
As to `CCCCCCCCCCCCCCc1c2c(OC)c(OC)ccc2cc2[n+]1CCc1cc3c(cc1-2)OCO3.[Cl-]` [8-TETRADECYL-BERBERINE CHLORIDE], the Activity entry is “Non-toxic” in the series on Oryctolagus cuniculus [1]; 1.73e+06 nmol/L with Oryctolagus cuniculus [2]; 730000 nmol/L in the series on Oryctolagus cuniculus [4]; “Non-toxic” in the series on Oryctolagus cuniculus [6]; 2.41e+06 nmol/L with Oryctolagus cuniculus [7]; 6.02e+06 nmol/L in the series with Oryctolagus cuniculus [8]. For the same compound, the inhibition in series [3] came to 11.2%. Further, the LD50 in series [5] was determined as 803 mg/kg.
As for `COc1ccc2cc3[n+](cc2c1OC)CCc1cc2c(cc1-3)OCO2.[Cl-]` [BERBERINE CHLORIDE], the Activity with Oryctolagus cuniculus [2] was determined as 2.02e+06 nmol/L; with Oryctolagus cuniculus [4], 700000 nmol/L; with Oryctolagus cuniculus [7] it was 3.27e+06 nmol/L; in the series with Oryctolagus cuniculus [8], 7.94e+06 nmol/L. Further, the LD50 in series [5] was 764 mg/kg.
On to `CC[C@H](C)C(=O)O[C@H]1C[C@@H](C)C=C2C=C[C@H](C)[C@H](CC[C@@H]3C[C@@H](O)CC(=O)O3)[C@H]21` [LOVASTATIN], for which the Activity in the series with Oryctolagus cuniculus [9] came out at 1.62e+06 nmol/L; in the series with Oryctolagus cuniculus [10], 2.56e+06 nmol/L; with Oryctolagus cuniculus [11], 1.85e+06 nmol/L; with Oryctolagus cuniculus [12], 780000 nmol/L. In series [3], the inhibition worked out at 20.2%. Further, the LD50 in series [5] was over 1000 mg/kg.
